Experimental data taken from PMC10786919, “Design-rules for stapled peptides with in vivo activity and their application to Mdm2/X antagonists” (Nature Communications, 2024).
≈ marks a conversion by molar mass, not a printed value. Like-named read-outs stand apart in the source and are kept apart here. Positions of bridges follow the written chain, without caps; N, C: chain ends. Non-standard residues stand in square brackets, D forms with d. Residues, ends and D or L forms follow the SMILES beside them. Lys(N3) = [N-]=[N+]=NCCCC[C@H](N)C(=O)O; hArg = N=C(N)NCCCC[C@H](N)C(=O)O; R8 = C=CCCCCCC[C@@](C)(N)C(=O)O; Cba = N[C@@H](CC1CCC1)C(=O)O; S5 = C=CCCC[C@](C)(N)C(=O)O; βAla = NCCC(=O)O

How the values were obtained:
[1] = Solubility assay (kinetic solubility, PBS pH 7); format: physicochemical; details: for solubility kinetic: pH 7, aqueous buffer, kinetic from dmso stock, read-out: Solubility
In short: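 Std: 10 mM stock → 100 µM in ACN/MeOH/DMSO (10:80:10). Sol. [µM] = (sample peak area / std peak area) × std conc.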

[2] = in vitro; details: Nanoclick permeability assay EC50
In short: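 Azido-peptide permeability was read as loss of NanoBRET signal (donor 450 nm, acceptor 610 nm) after adding NanoBret618-azide at 10 μM final.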

[3] = physchem
[4] = Experimental LogD (partition coefficient); details: for logD: not stated, Partition Coeff LogD
[5] = system: p53 responsive β-lactamase reporter in HCT116 cells; assay: cells; format: cell-based; details: read-out: p53 reporter assay EC50
In short: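 Read-out used the ToxBLAzer Dual Screen for β-lactamase driven by a stably integrated p53-responsive reporter. Assay: 8000 HCT116 cells per well at 0.5% final DMSO. Reported numbers are geometric means over a minimum of three biological replicates.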

[6] = Lactate dehydrogenase (LDH) release assay; format: cell-based
In short: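 HCT116 cells stably carrying a p53-responsive β-lactamase reporter, seeded at 8000 cells/well, exposed to compound with 0.5% final DMSO. LDH release read with the CytoTox-ONE membrane integrity kit. Values are geometric means of at least three biological replicates.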

[7] = system: Jump-In T-REx CHO-K1 BLA cells; assay: cells; format: cell-based; details: for EC50: read-out: TETCHO: Counterscreen EC50
[8] = system: Ca Ski cell line; details: 72 h
In short: (§1)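 Compound dilution series (10 points, 3-fold, 10 mM top stock in DMSO) tested on overnight-plated Ca Ski cells in RPMI1640/10% FBS and on blasticidin-selected p53RE-bla HCT-116 cells in McCoy's 5A; read-out was CellTiter-Glo 2.0 luminescence after room-temperature equilibration.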

[9] = system: CellSensor p53RE-bla HCT-116 Cell Line; details: 72 h
In short: as §1

[10] = EPSA; format: physicochemical; details: EPSA
[11] = in vitro; details: human, HCT116 whole cell homogenates
[12] = target: T1, human Mdm2 1–125 (Homo sapiens, UniProt Q00987); assay: Mdm2 binding by competitive fluorescence anisotropy assay (FP binding); details: read-out: FP binding assay KD
T1 construct: GST (N); His6 (internal); TEV cleavage site (ENLYFQG) (internal); made in house; host or cells: BL21 (DE3) Rosetta T1R Escherichia coli
T1 sequence (Q00987 with tags, fused parts or gaps): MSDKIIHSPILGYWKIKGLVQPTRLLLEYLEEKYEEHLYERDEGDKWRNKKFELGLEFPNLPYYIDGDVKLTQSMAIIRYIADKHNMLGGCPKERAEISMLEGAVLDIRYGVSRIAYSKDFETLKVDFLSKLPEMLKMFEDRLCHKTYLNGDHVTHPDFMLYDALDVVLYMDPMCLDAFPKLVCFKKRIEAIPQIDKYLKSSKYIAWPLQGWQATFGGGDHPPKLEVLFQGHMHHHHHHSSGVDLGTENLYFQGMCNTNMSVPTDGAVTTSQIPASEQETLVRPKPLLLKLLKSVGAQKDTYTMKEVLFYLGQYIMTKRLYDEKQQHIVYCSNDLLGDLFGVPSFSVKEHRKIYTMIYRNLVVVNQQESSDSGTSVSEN

SMILES | solubility kinetic ([1]; pH 7, PBS) | cell entry EC50 [2] | EPSA [3] | logD [4] | EC50 ([6]; LDH: Cytotoxicity assay EC50) | Solubility ([1]; pH 7, PBS) | Partition Coeff LogD [4] | also measured
CC(=O)N[C@@H](CCCCN=[N+]=[N-])C(=O)NCCC(=O)N[C@@H](CC(C)C)C(=O)N[C@H](C(=O)N[C@@H](Cc1ccccc1)C(=O)N[C@]1(C)CCCCCCC=CCCC[C@@](C)(C(=O)N[C@@H](CO)C(=O)N[C@@H](C)C(=O)N[C@@H](C)C(N)=O)NC(=O)[C@H](CC2CCC2)NC(=O)[C@H](CCCCNC(=N)N)NC(=O)[C@H](C)NC(=O)[C@H](Cc2c[nH]c3ccccc23)NC(=O)[C@H](Cc2ccc(O)cc2)NC(=O)[C@H](CCC(=O)O)NC1=O)[C@@H](C)O [MP-900] (Ac-[Lys(N3)][βAla]LTF[R8]EYWA[hArg][Cba][S5]SAA-NH2; staple 6-13) | 10 µM (≈ 20.1 µg/mL) | 1040 nM | 187 A^2 | 3.03 | – | – | – | –
CC(=O)N[C@@H](CCCCN=[N+]=[N-])C(=O)N[C@H](C(=O)N[C@@H](CO)C(=O)N[C@@H](Cc1ccccc1)C(=O)N[C@]1(C)CCCCCCC=CCCC[C@@](C)(C(=O)N[C@@H](CO)C(=O)N[C@@H](C)C(=O)N[C@@H](C)C(N)=O)NC(=O)[C@H](CC2CCC2)NC(=O)[C@H](CCC(N)=O)NC(=O)[C@H](C)NC(=O)[C@H](Cc2c[nH]c3ccccc23)NC(=O)[C@H](Cc2ccc(O)cc2)NC(=O)[C@H](C)NC1=O)[C@@H](C)O [MP-703] (Ac-[Lys(N3)]TSF[R8]AYWAQ[Cba][S5]SAA-NH2; staple 5-12) | – | – | 178 A^2 | – | > 50000 nM | Poorly Behaved | Poorly Behaved | EC50 ([5]; 0% FBS 4Hr): 302 nM; EC50 ([5]; 0% FBS 16Hr): 870 nM; TETCHO: Counterscreen % Effect ([7]; 0% FBS 4Hr): 32.8%; EC50 ([7]; 0% FBS 4Hr): > 50600 nM
CC[C@H](C)[C@H](NC(=O)[C@H](CC(C)C)NC(=O)[C@@H]1CCCN1C(C)=O)C(=O)N[C@@H](Cc1ccc(O)cc1)C(=O)N[C@@H](CC(C)C)C(=O)N[C@@H](CCCNC(=N)N)C(=O)N[C@@H](CC(C)C)C(=O)N[C@@H](CC(C)C)C(=O)N[C@@H](CCCNC(=N)N)C(=O)NCC(=O)N[C@@H](CCC(N)=O)C(=O)N[C@@H](Cc1ccccc1)C(=O)N[C@@H](CCCCN=[N+]=[N-])C(=O)NCCC(=O)N[C@@H](CC(C)C)C(=O)N[C@H](C(=O)N[C@@H](Cc1ccccc1)C(=O)N[C@]1(C)CCCCCCC=CCCC[C@@](C)(C(=O)N[C@@H](CO)C(=O)N[C@@H](C)C(=O)N[C@@H](C)C(N)=O)NC(=O)[C@H](CC2CCC2)NC(=O)[C@H](CCC(N)=O)NC(=O)[C@H](C)NC(=O)[C@H](Cc2c[nH]c3ccccc23)NC(=O)[C@H](Cc2ccc(O)cc2)NC(=O)[C@H](CCC(=O)O)NC1=O)[C@@H](C)O [MP-880] | 2 µM (≈ 6.88 µg/mL) | 569 nM | 245 A^2 | 3.54 | > 50000 nM | – | – | –
CC(=O)N[C@@H](CCCCN=[N+]=[N-])C(=O)NCCC(=O)N[C@@H](CC(C)C)C(=O)N[C@H](C(=O)N[C@@H](Cc1ccccc1)C(=O)N[C@]1(C)CCCCCCC=CCCC[C@@](C)(C(=O)N[C@@H](CO)C(=O)N[C@@H](CCCCNC(=N)N)C(=O)N[C@@H](C)C(N)=O)NC(=O)[C@H](CC2CCC2)NC(=O)[C@H](CCC(N)=O)NC(=O)[C@H](C)NC(=O)[C@H](Cc2c[nH]c3ccccc23)NC(=O)[C@H](Cc2ccc(O)cc2)NC(=O)[C@H](CCC(=O)O)NC1=O)[C@@H](C)O [MP-881] (Ac-[Lys(N3)][βAla]LTF[R8]EYWAQ[Cba][S5]S[hArg]A-NH2; staple 6-13) | 2 µM (≈ 4.14 µg/mL) | 1920 nM | 183 A^2 | 2.9 | > 50000 nM | – | – | –
CC(=O)N[C@@H](CCCCN=[N+]=[N-])C(=O)NCCC(=O)N[C@@H](CC(C)C)C(=O)N[C@H](C(=O)N[C@@H](Cc1ccccc1)C(=O)N[C@]1(C)CCCCCCC=CCCC[C@@](C)(C(=O)N[C@@H](C)C(=O)N[C@@H](C)C(=O)N[C@@H](C)C(=O)N[C@@H](C)C(=O)N[C@@H](C)C(=O)N[C@@H](C)C(N)=O)NC(=O)[C@H](CC2CCC2)NC(=O)[C@H](CCC(N)=O)NC(=O)[C@H](C)NC(=O)[C@H](Cc2c[nH]c3ccccc23)NC(=O)[C@H](Cc2ccc(O)cc2)NC(=O)[C@H](CCC(=O)O)NC1=O)[C@@H](C)O [MP-032] (Ac-[Lys(N3)][βAla]LTF[R8]EYWAQ[Cba][S5]AAAAAA-NH2; staple 6-13) | – | 708 nM | – | – | – | Poorly Behaved | Poorly Behaved | EC50 ([6]; LDH: Cytotoxicity assay: EC50): > 50700 nM; Solubility [1]: P.B.; EC50 [8]: 26600 nM; EC50 [9]: 960 nM; EPSA [10]: 194 A^2; half-life at 1 μM [11]: 30 min
CC(=O)N[C@@H](CCCCN=[N+]=[N-])C(=O)NCCC(=O)N[C@@H](CC(C)C)C(=O)N[C@H](C(=O)N[C@@H](Cc1ccccc1)C(=O)N[C@]1(C)CCCCCCC=CCCC[C@@](C)(C(=O)N[C@@H](CO)C(=O)N[C@@H](C)C(=O)N[C@@H](CCCCNC(=N)N)C(N)=O)NC(=O)[C@H](CC2CCC2)NC(=O)[C@H](CCC(N)=O)NC(=O)[C@H](C)NC(=O)[C@H](Cc2c[nH]c3ccccc23)NC(=O)[C@H](Cc2ccc(O)cc2)NC(=O)[C@H](CCC(=O)O)NC1=O)[C@@H](C)O [MP-902] (Ac-[Lys(N3)][βAla]LTF[R8]EYWAQ[Cba][S5]SA[hArg]-NH2; staple 6-13) | 6 µM (≈ 12.4 µg/mL) | 2650 nM | 191 A^2 | 2.54 | > 50000 nM | – | – | –
CC(=O)N[C@@H](CCCCN=[N+]=[N-])C(=O)NCCC(=O)N[C@@H](CC(C)C)C(=O)N[C@H](C(=O)N[C@@H](Cc1ccccc1)C(=O)N[C@]1(C)CCCCCCC=CCCC[C@@](C)(C(=O)N[C@@H](CO)C(=O)N[C@@H](C)C(=O)N[C@@H](C)C(N)=O)NC(=O)[C@H](CC2CCC2)NC(=O)[C@H](CCC(N)=O)NC(=O)[C@H](CCCCNC(=N)N)NC(=O)[C@H](Cc2c[nH]c3ccccc23)NC(=O)[C@H](Cc2ccc(O)cc2)NC(=O)[C@H](CCC(=O)O)NC1=O)[C@@H](C)O [MP-899] (Ac-[Lys(N3)][βAla]LTF[R8]EYW[hArg]Q[Cba][S5]SAA-NH2; staple 6-13) | 2 µM (≈ 4.14 µg/mL) | 189 nM | 200 A^2 | 2.76 | > 50000 nM | – | – | –
CC(=O)N[C@@H](CO)C(=O)NCC(=O)N[C@@H](CO)C(=O)N[C@H](C(=O)N[C@@H](CO)C(=O)N[C@@H](Cc1ccccc1)C(=O)N[C@]1(C)CCCCCCC=CCCC[C@@](C)(C(N)=O)NC(=O)[C@H](CC(C)C)NC(=O)[C@H](CC(C)C)NC(=O)[C@H](C)NC(=O)[C@H](Cc2c[nH]c3ccccc23)NC(=O)[C@H](Cc2ccc(O)cc2)NC(=O)[C@H](CCC(=O)O)NC1=O)[C@@H](C)O [MP-654] | 23 µM (≈ 39 µg/mL) | – | 217 A^2 | 2.3 | > 50000 nM | – | – | Kd [12]: 5.86 nM; EC50 ([5]; 0% FBS 4Hr): 10200 nM; EC50 ([5]; 0% FBS 16Hr): 13800 nM; TETCHO: Counterscreen % Effect ([7]; 0% FBS 4Hr): 1.563%; EC50 ([7]; 0% FBS 4Hr): > 50600 nM; TETCHO: Counterscreen % Effect ([7]; 0% FBS 16Hr): 3.969%; EC50 ([7]; 0% FBS 16Hr): > 50000 nM
CC(=O)N[C@@H](CCCCN=[N+]=[N-])C(=O)NCCC(=O)N[C@@H](CC(C)C)C(=O)N[C@H](C(=O)N[C@@H](Cc1ccccc1)C(=O)N[C@]1(C)CCCCCCC=CCCC[C@@](C)(C(=O)N[C@@H](CO)C(=O)N[C@@H](C)C(=O)N[C@@H](C)C(N)=O)NC(=O)[C@H](CC2CCC2)NC(=O)[C@H](CCC(N)=O)NC(=O)[C@H](C)NC(=O)[C@H](Cc2c[nH]c3ccccc23)NC(=O)[C@H](Cc2ccc(O)cc2)NC(=O)[C@H](CCCCNC(=N)N)NC1=O)[C@@H](C)O [MP-6898] (Ac-[Lys(N3)][βAla]LTF[R8][hArg]YWAQ[Cba][S5]SAA-NH2; staple 6-13) | 2 µM (≈ 4.02 µg/mL) | 2120 nM | 181 A^2 | 3.21 | 12400 nM | – | – | –
CC(=O)N[C@@H](CCCCN=[N+]=[N-])C(=O)NCCC(=O)N[C@@H](CC(C)C)C(=O)N[C@H](C(=O)N[C@@H](Cc1ccccc1)C(=O)N[C@]1(C)CCCCCCC=CCCC[C@@](C)(C(=O)N[C@@H](CCCCNC(=N)N)C(=O)N[C@@H](C)C(=O)N[C@@H](C)C(N)=O)NC(=O)[C@H](CC2CCC2)NC(=O)[C@H](CCC(N)=O)NC(=O)[C@H](C)NC(=O)[C@H](Cc2c[nH]c3ccccc23)NC(=O)[C@H](Cc2ccc(O)cc2)NC(=O)[C@H](CCC(=O)O)NC1=O)[C@@H](C)O [MP-901] (Ac-[Lys(N3)][βAla]LTF[R8]EYWAQ[Cba][S5][hArg]AA-NH2; staple 6-13) | – | 460 nM | 186 A^2 | – | > 50600 nM | Poorly Behaved | Poorly Behaved | –
